The source of these data is PubChem BioAssay (NCI).

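Each compound was tested at five concentrations against cells in 96-well plates for 48 hours. The concentration for 50% growth inhibition is given as GI50. TGI denotes the concentration required for complete inhibition of growth.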 Bounds are passed on as bounds.

Some test systems named below: SF-295 CNS; U251 CNS; SF-539 CNS; HT29 colon; RXF 393 renal; PC-3 prostate; ACHN renal; SNB-19 CNS; MOLT-4 leukemia; 786-0 renal.
What all share (assay): NCI tumour cell line growth inhibition, 48 h

Consider `O=C(c1cc(F)c(Cl)cc1Cl)N1N=C(c2ccccc2)CC1(O)c1ccccc1` (stereo not given), for which the GI50 with SF-295 CNS is 32.9 µM; in the test with U251 CNS, 18.4 µM; with SF-539 CNS, 16.5 µM; in the test on HT29 colon, 12.1 µM; in the test with RXF 393 renal, 23.6 µM; in the test with PC-3 prostate, 12.9 µM. The GI50 in the test with ACHN renal is 23 µM; in the test with SNB-19 CNS, 29.2 µM; with MOLT-4 leukemia, 19.8 µM; in the test on 786-0 renal, 15.8 µM. The TGI was over 100 µM in the test on SF-295 CNS; 38.5 µM in the test on U251 CNS; 30.2 µM in the test on SF-539 CNS; 25.3 µM in the test with HT29 colon; 48.1 µM in the test on RXF 393 renal; 40.5 µM with PC-3 prostate. Besides, the TGI came to 59.4 µM in the test on ACHN renal, 93.7 µM with SNB-19 CNS, 43 µM in the test on MOLT-4 leukemia and 40.9 µM with 786-0 renal.
For `Cc1cc(C)c(O)c(CNCCCCCCNCc2cc(C)cc(C)c2O)c1`, the GI50 with SF-295 CNS is 1.78 µM; with U251 CNS, 1.58 µM; in the test with SF-539 CNS it was 1.62 µM; with HT29 colon, 1.73 µM; in the test with RXF 393 renal, 1.59 µM; in the test on PC-3 prostate it was 1.99 µM. The GI50 in the test on ACHN renal is 1.91 µM; in the test on SNB-19 CNS, 1.98 µM; in the test on MOLT-4 leukemia, 1.72 µM; in the test with 786-0 renal, 1.42 µM. The TGI amounted to 3.46 µM in the test with SF-295 CNS; 3.07 µM in the test on U251 CNS; 3.17 µM in the test with SF-539 CNS; 3.82 µM with HT29 colon; 3.08 µM in the test on RXF 393 renal; 4.28 µM with PC-3 prostate. The TGI in the test on ACHN renal is 3.69 µM; in the test with SNB-19 CNS, 4.59 µM; in the test on MOLT-4 leukemia, 3.9 µM; with 786-0 renal, 2.92 µM.
Consider `CN(C)CCCN=C(N)N`, for which the TGI in the test with SF-295 CNS, in the test on U251 CNS, in the test on SF-539 CNS, in the test on HT29 colon, with RXF 393 renal and in the test on PC-3 prostate was over 100 µM in each case. In addition, the TGI in the test on ACHN renal, in the test with SNB-19 CNS, in the test on MOLT-4 leukemia and in the test on 786-0 renal was over 100 µM each time.
For `N#CC1=C(N)NC(=S)NC12Nc1ccccc1O2` (stereo not given), the GI50 in the test with SF-295 CNS is 38.4 µM; with U251 CNS, 28.2 µM; with SF-539 CNS it was 45.8 µM; in the test with HT29 colon, 31.2 µM; with RXF 393 renal it was over 100 µM; in the test with PC-3 prostate, 28.6 µM. In addition, the GI50 is 29.2 µM in the test with ACHN renal, 23.9 µM in the test on SNB-19 CNS, 3.72 µM with MOLT-4 leukemia and 30.1 µM in the test with 786-0 renal. In addition, the TGI in the test with SF-295 CNS is over 100 µM; with U251 CNS, over 100 µM; in the test on SF-539 CNS, over 100 µM; in the test on HT29 colon it was 90.8 µM; with RXF 393 renal it was over 100 µM; with PC-3 prostate, over 100 µM. Also, the TGI in the test on ACHN renal is 99.2 µM; in the test with SNB-19 CNS, over 100 µM; with MOLT-4 leukemia it was over 100 µM; in the test on 786-0 renal it was over 100 µM.
For the compound `O=C(Nc1ccc(-n2cc(-c3ccncc3)c(-c3ccc(Cl)c(O)c3)n2)cc1)Nc1cc(C(F)(F)F)cc(C(F)(F)F)c1`, the GI50 in the test with SF-295 CNS was 1.47 µM; in the test on U251 CNS it was 1.51 µM; in the test on SF-539 CNS, 1.94 µM; with HT29 colon, 1.95 µM; in the test on RXF 393 renal, 1.45 µM; in the test on PC-3 prostate it was 2.05 µM. Further, the GI50 in the test on ACHN renal is 2.92 µM; in the test with SNB-19 CNS, 3.01 µM; in the test with MOLT-4 leukemia, 1.95 µM; in the test with 786-0 renal it was 1.8 µM. Also, the TGI in the test with SF-295 CNS is 3.08 µM; with U251 CNS it was 2.98 µM; in the test with SF-539 CNS it was 6.4 µM; in the test on HT29 colon, 3.74 µM; with RXF 393 renal, 3.45 µM; in the test with PC-3 prostate it was 6.1 µM. Further, the TGI with ACHN renal is 10.3 µM; with SNB-19 CNS, 9.97 µM; in the test on MOLT-4 leukemia, 7.37 µM; with 786-0 renal, 3.72 µM.
As for `C[C@]12CC[C@H](O)CC1=CC[C@@H]1C2CC[C@]2(C)c3nn(-c4ccc(F)cc4)nc3CC12` (stereo not given in full), the TGI in the test with SF-295 CNS is over 100 µM; with U251 CNS, over 100 µM; with SF-539 CNS, over 100 µM; with HT29 colon, 73 µM; in the test with RXF 393 renal it was over 100 µM; with PC-3 prostate, over 100 µM. Further, the TGI in the test on ACHN renal, with SNB-19 CNS, in the test on MOLT-4 leukemia and with 786-0 renal was over 100 µM each time.
Regarding `COC(=O)COc1ccc(/C=C2\N=C(c3ccccc3)N(c3cc(C(F)(F)F)ccc3Cl)C2=O)cc1`, the GI50 is over 100 µM in the test with SF-295 CNS; 46.4 µM in the test with U251 CNS; 36 µM in the test with SF-539 CNS; 97.1 µM in the test on HT29 colon; over 100 µM with RXF 393 renal; 44.8 µM with PC-3 prostate. Also, the GI50 is over 100 µM with ACHN renal, 83.8 µM in the test with SNB-19 CNS, 28.6 µM in the test on MOLT-4 leukemia and over 100 µM with 786-0 renal. For the same compound, the TGI in the test on SF-295 CNS, in the test on U251 CNS, in the test on SF-539 CNS, with HT29 colon, with RXF 393 renal and in the test with PC-3 prostate was over 100 µM in each case. In addition, the TGI is over 100 µM in the test on ACHN renal, over 100 µM in the test with SNB-19 CNS, 69.1 µM with MOLT-4 leukemia and over 100 µM with 786-0 renal.
